Test results as given in ChEMBL document CHEMBL5385882, “Rational design and appraisal of selective Cdc2-Like kinase 1 (Clk1) inhibitors as novel autophagy inducers for the treatment of acute liver injury (ALI)” (Eur J Med Chem, 2023).
Activity calls are given as the source filed them. No cut-off for these calls is given here.

How the values were obtained:
HeLa [1] = assay: Induction of autophagy in human HeLa cells assessed as increase in LC3II protein incubated for 24 hrs by Western blot analysis; format: functional, cell-based; conditions: dose 0.2-10 µM
[2] = Metabolic stability in human liver microsomes assessed as half life at 10 uM incubated for 5 mins in the presence of NADPH-generating system by LC-MS/MS analysis; format: ADME, Microsome
HeLa [3] = assay: Induction of autophagy in human HeLa cells infected with RFP-GFP-LC3 assessed as increased the number of yellow LC3 puncta at 10 uM after 24 hrs by confocal microscopy; format: functional, cell-based
[4] = Metabolic stability in human liver microsomes assessed as clearance at 10 uM incubated for 5 mins in the presence of NADPH-generating system by LC-MS/MS analysis; format: ADME, Microsome
[5] = Cmax in Balb/c mouse at 10 mg/kg, ip measured upto24 hrs by LC/MS/MS analysis; format: ADME, organism-based; parameters: dose 10 mg/kg, time 24 hrs, route ip; conditions: in vivo
[6] = target: T1, Dual specificity protein kinase CLK1 (Homo sapiens, UniProt P49759); assay: Inhibition of human 130-end recombinant CLK1 assessed as remaining activity using ERMRPRKRQGSVR as substrate at 100 nM by [gamma-32P]ATP binding based scintillation counting based analysis relative to control
Target sequence in this assay (P49759 whole entry, looked up): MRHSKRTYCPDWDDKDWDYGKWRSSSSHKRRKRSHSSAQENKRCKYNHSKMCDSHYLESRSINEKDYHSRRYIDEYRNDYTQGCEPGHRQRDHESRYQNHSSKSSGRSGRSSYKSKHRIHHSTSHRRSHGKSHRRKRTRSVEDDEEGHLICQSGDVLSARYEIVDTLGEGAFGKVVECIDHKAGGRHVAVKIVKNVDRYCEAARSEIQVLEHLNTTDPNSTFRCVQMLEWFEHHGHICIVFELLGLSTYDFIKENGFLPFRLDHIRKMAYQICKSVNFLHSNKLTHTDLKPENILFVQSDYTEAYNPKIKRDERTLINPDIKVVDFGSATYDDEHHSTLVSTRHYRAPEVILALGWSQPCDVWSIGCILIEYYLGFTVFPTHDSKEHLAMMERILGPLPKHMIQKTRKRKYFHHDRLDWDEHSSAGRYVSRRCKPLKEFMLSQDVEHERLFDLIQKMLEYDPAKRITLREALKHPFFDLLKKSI

[7] = Half life in Balb/c mouse at 10 mg/kg, ip measured upto24 hrs by LC/MS/MS analysis; format: ADME, organism-based; conditions: in vivo, time 24 hrs
[8] = Clearance in Balb/c mouse at 10 mg/kg, ip measured upto24 hrs by LC/MS/MS analysis; format: ADME, organism-based; conditions: in vivo, time 24 hrs
[9] = Cmax in Balb/c mouse at 10 mg/kg, po measured upto24 hrs by LC/MS/MS analysis; format: ADME, organism-based; parameters: dose 10 mg/kg, time 24 hrs, route po; conditions: in vivo
[10] = target: Dual specificity protein kinase CLK1 (Mus musculus) (UniProt P22518); assay: Inhibition of Clk1 in mouse BNL CL.2 cells assessed as redistribution of serine/arginine (SR) proteins from nucleoplasmic (active form) to nuclear speckles (storage form) incubated for 24 hrs by immunofluorescence assay; format: cell-based; conditions: dose 1-10 µM
[11] = target: T2, Dual specificity tyrosine-phosphorylation-regulated kinase 1A (Homo sapiens, UniProt Q13627); assay: Inhibition of human full length recombinant DYRK1A assessed as remaining activity using RRRFRPASPLRGPP as substrate by [gamma-32P]ATP binding based scintillation counting based analysis
HeLa [12] = assay: Induction of autophagy in human HeLa cells assessed as ratio of LC3II protein to LC3I incubated for 24 hrs by Western blot analysis; format: functional, cell-based; conditions: dose 0.2-10 nM
[13] = Cmax in Balb/c mouse at 10 mg/kg, iv measured upto24 hrs by LC/MS/MS analysis; format: ADME, organism-based; parameters: time 24 hrs, dose 10 mg/kg, route iv; conditions: in vivo
[14] = AUC (0 to t) in Balb/c mouse at 10 mg/kg, iv measured upto24 hrs by LC/MS/MS analysis; format: ADME, organism-based; parameters: time 24 hrs, dose 10 mg/kg, route iv; conditions: in vivo
[15] = AUC (0 to t) in Balb/c mouse at 10 mg/kg, ip measured upto24 hrs by LC/MS/MS analysis; format: ADME, organism-based; parameters: time 24 hrs, dose 10 mg/kg, route ip; conditions: in vivo
[16] = Half life in Balb/c mouse at 10 mg/kg, po measured upto24 hrs by LC/MS/MS analysis; format: ADME, organism-based; conditions: in vivo, time 24 hrs
Mus musculus [17] = assay: Protection against APAP-induced acute liver injury in ip dosed C57BL/6 mouse model assessed as volume of hepatocytes measured after 6 hrs by H and E staining method; format: functional, organism-based; conditions: dose 10-40 mg/kg
HeLa [18] = assay: Induction of autophagy in human HeLa cells assessed as increase in LC3II protein at 10 uM by Western blot analysis; format: functional, cell-based; conditions: time 3-24 hrs, TDE = time-dependent effect
[19] = target: T2, Dual specificity tyrosine-phosphorylation-regulated kinase 1A; assay: Inhibition of human full length recombinant DYRK1A assessed as remaining activity using RRRFRPASPLRGPP as substrate at 100 nM by [gamma-32P]ATP binding based scintillation counting based analysis relative to control
[20] = Clearance in Balb/c mouse at 10 mg/kg, iv measured upto24 hrs by LC/MS/MS analysis; format: ADME, organism-based; conditions: in vivo, time 24 hrs
[21] = target: T1, Dual specificity protein kinase CLK1; assay: Binding affinity to Clk1 protein (unknown origin) assessed as inhibition of degradation in presence of 1:15 pronase to compound concentration
Target sequence in this assay (P49759 whole entry, looked up): as above

Homo sapiens = organism: Homo sapiens; assay: Selectivity index, ratio of IC50 for inhibition of human full length recombinant DYRK1A to IC50 for inhibition of human 130-end recombinant CLK1
Mus musculus [22] = assay: Protection against APAP-induced acute liver injury in ip dosed C57BL/6 mouse model assessed as tiny vacuoles in hepatocyte cytoplasm measured after 6 hrs by H and E staining method; format: functional, organism-based; conditions: dose 10-40 mg/kg
HeLa [23] = assay: Induction of autophagy in human HeLa cells assessed as ratio of LC3II protein to LC3I at 10 uM by Western blot analysis; format: functional, cell-based; conditions: time 3-24 hrs, TDE = time-dependent effect
[24] = Clearance in Balb/c mouse at 10 mg/kg, po measured upto24 hrs by LC/MS/MS analysis; format: ADME, organism-based; conditions: in vivo, time 24 hrs
Mus musculus [25] = assay: Protection against APAP-induced acute liver injury in ip dosed C57BL/6 mouse model assessed as decrease in body temperature measured after 6 hrs by H and E staining method; format: functional, organism-based; conditions: dose 10-40 mg/kg
Mus musculus [26] = assay: Protection against APAP-induced acute liver injury in ip dosed C57BL/6 mouse model assessed as decrease in serum AST level measured after 6 hrs; format: functional, organism-based
HeLa [27] = assay: Induction of autophagy in human HeLa cells assessed as degradation of SQSTM1/p62 at 10 uM incubated for 24 hrs by Western blot analysis; format: functional, cell-based
Mus musculus [28] = assay: Protection against APAP-induced acute liver injury in ip dosed C57BL/6 mouse model assessed as necrotic hepatocytes measured after 6 hrs by H and E staining method; format: functional, organism-based; conditions: dose 10-40 mg/kg
[29] = AUC (0 to t) in Balb/c mouse at 10 mg/kg, po measured upto24 hrs by LC/MS/MS analysis; format: ADME, organism-based; parameters: dose 10 mg/kg, time 24 hrs, route po; conditions: in vivo
[30] = Oral bioavailability in Balb/c mouse at 10 mg/kg measured upto24 hrs by LC/MS/MS analysis; format: ADME, organism-based; conditions: in vivo, time 24 hrs
[31] = target: T1, Dual specificity protein kinase CLK1; assay: Inhibition of human 130-end recombinant CLK1 assessed as remaining activity using ERMRPRKRQGSVR as substrate by [gamma-32P]ATP binding based scintillation counting based analysis
Target sequence in this assay (P49759 whole entry): as the sequence (P49759 whole entry, looked up) above

Mus musculus [32] = assay: Protection against APAP-induced acute liver injury in ip dosed C57BL/6 mouse model assessed as decrease in serum ALT level measured after 6 hrs; format: functional, organism-based; conditions: dose 10-40 mg/kg
[33] = Half life in Balb/c mouse at 10 mg/kg, iv measured upto24 hrs by LC/MS/MS analysis; format: ADME, organism-based; conditions: in vivo, time 24 hrs

Chain of Dual specificity protein kinase CLK1 (Mus musculus) (P22518 whole entry, looked up): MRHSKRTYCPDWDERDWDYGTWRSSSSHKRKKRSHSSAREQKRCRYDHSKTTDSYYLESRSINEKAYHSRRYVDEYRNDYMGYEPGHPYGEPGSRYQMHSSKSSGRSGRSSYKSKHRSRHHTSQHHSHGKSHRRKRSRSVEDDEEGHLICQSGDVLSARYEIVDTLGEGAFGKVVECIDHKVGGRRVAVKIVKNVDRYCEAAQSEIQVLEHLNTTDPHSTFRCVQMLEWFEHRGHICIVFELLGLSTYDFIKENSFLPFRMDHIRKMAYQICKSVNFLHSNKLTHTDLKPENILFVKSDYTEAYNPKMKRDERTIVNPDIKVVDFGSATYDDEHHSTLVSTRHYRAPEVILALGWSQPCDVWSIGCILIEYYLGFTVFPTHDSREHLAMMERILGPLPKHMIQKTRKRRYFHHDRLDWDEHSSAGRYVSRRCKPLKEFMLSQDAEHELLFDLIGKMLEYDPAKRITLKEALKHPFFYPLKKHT

For `CN1CCN(c2ccc(C(=O)Nc3cnc4[nH]cc(-c5cncc(F)c5)c4c3)cc2)CC1`, the Activity (HeLa [1]) was “Dose-Dependent Effect”, the half-life at 10 µM [2] was over 2 h and the Activity (HeLa [3]) was “Active”. It also gave a CLH [4] of under 12 mL/min/g, a Cmax [5] of 4650 ng/mL and an Activity [6] of 2%. For the same compound, the half-life [7] was 3.27 h, the CL/F [8] was 59.7 mL/min/kg and the Cmax [9] was 1460 ng/mL. For the same compound, the inhibition [10] was “Dose-Dependent Effect”, the IC50 [11] was 1520 nM and the Activity (HeLa [12]) was “Dose-Dependent Effect”. It also gave a Cmax [13] of 13200 ng/mL, an AUC(0-t) at 24 h [14] of 9520 ng·h/mL and an AUC(0-t) at 24 h [15] of 5010 ng·h/mL. For the same compound, the half-life [16] was 5.29 h, the Activity (Mus musculus [17]) was “Dose-Dependent Effect” and the Activity (HeLa [18]) was “Tde”. The Activity [19] was 72%, the clearance [20] was 17.5 mL/min/kg and the Activity [21] was “Dose-Dependent Effect”. For the same compound, the Selectivity Index (Homo sapiens) was 304, the Activity (Mus musculus [22]) was “Dose-Dependent Effect” and the Activity (HeLa [23]) was “Tde”. The CL/F [24] was 91.8 mL/min/kg, the Activity (Mus musculus [25]) was “Dose-Dependent Effect” and the Activity (Mus musculus [26]) was “Dose-Dependent Effect”. For the same compound, the Activity (HeLa [27]) was “Active”, the Activity (Mus musculus [28]) was “Dose-Dependent Effect” and the AUC(0-t) at 24 h [29] was 1860 ng·h/mL. The bioavailability [30] was 19.5%, the IC50 [31] was 5 nM and the Activity (Mus musculus [32]) was “Dose-Dependent Effect”. It also gave a half-life [33] of 2.96 h.
